Patent US20100239498A1, “METHOD OF MAINTAINING THE FUNCTION OF LIVER TISSUE CELLS OVER LONG TIME” (priority 2006, published 2010)

Test system: CYP1A
Assay: CYP1A induction in transplanted murine subcutaneous hepatic tissue, tissue staining (Example 3)
Assay type: in vivo, mouse
Details: 120 days after transplantation; intraperitoneal once a day for three days; tissue staining 24 hours after final administration
Procedure: The murine hepatic tissue cell sheet as obtained in Example 1 was transplanted by application into a murine subcutaneous site having undergone the induction of angiogenesis in accordance with the method of transplanting a hepatic cell sheet as shown in Example 1. One hundred twenty days after transplantation, 3-methylcholantrene (Sigma-Aldrich, St. Louis, Mo.) was intraperitoneally administered once a day and continuously for three days, and 24 hours after the final administration, the mouse was killed and the hepatic tissue prepared was subjected to tissue staining (Example 3). […] Further, CYP1A means CYP1A activity.

For `Cc1ccc2cc3c(ccc4ccccc43)c3c2c1CC3` [3-methylcholantrene], which “induction of CYP1A (CYP1A activity) in prepared murine subcutaneous hepatic tissue” value is on record?
The value was “strongly induced”.
